Values after ≈ are worked out from the molar mass of the structure shown.
How the values were obtained:
[1] = tested on: vancomycin-resistant E. faecalis VRE 342B; assay: MIC, microtitration broth method, VRE1; format: cell-based; conditions: Enterococcus faecalis, 24 h, 37 °C, BHI broth
Excerpt: Since there is a general decrease in immunity during the treatment of oncological patients, i.e., patients are more susceptible to infectious diseases, it is advantageous if anticancer agents show antimicrobial properties at the same time. Therefore, the effects of the compounds were also investigated against Gram-positive bacteria. For this purpose, the susceptible collection strains of aerobic Staphylococcus aureus ATCC 29213 and facultatively aerobic Enterococcus faecalis ATCC 29212 and resistant clinical isolates of methicillin-resistant S. aureus (MRSA) SA 3202, SA 630 carrying the mecA gene, and vancomycin-resistant isolates of E. faecalis (VRE) 342B, 368, and 725B carrying the vanA gene were selected. Thus, the selection of the studied bacterial strains was adopted following the CLSI ([…]) international reference methodologies.
The in vitro antibacterial activity of the synthesized compounds was evaluated against representatives of multidrug-resistant bacteria, […] clinical isolates of methicillin-resistant S. aureus: clinical isolates of human origin, MRSA SA 3202, and MRSA SA 630 (National Institute of Public Health, Prague, Czech Republic), carrying the mecA gene. These two clinical isolates were classified as vancomycin-susceptible (but with a higher MIC of vancomycin equal to 2 μg/mL (VA2-MRSA). Vancomycin- and methicillin-susceptible S. aureus ATCC 29213 and vancomycin-susceptible Enterococcus faecalis ATCC 29212, obtained from the American Type Culture Collection, were used as the reference and quality control strains. Three vanA gene-carrying vancomycin-resistant isolates of E. faecalis (VRE 342B, VRE 368, VRE 725B) (Department of Infectious Diseases and Microbiology, Faculty of Veterinary Medicine, University of Veterinary Sciences Brno, Czech Republic) were provided by Oravcova et al..
The minimum inhibitory concentrations (MICs) were evaluated by the microtitration broth method according to the CLSI, with some modifications. The compounds were dissolved in DMSO (Sigma, St. Louis, MO, USA) to obtain a concentration of […] and diluted in a microtitration plate in an appropriate medium, i.e., Cation-Adjusted Mueller–Hinton Broth (CaMH, Oxoid, Basingstoke, UK) for staphylococci, and Brain Heart Infusion Broth (BHI, Oxoid) for enterococci to reach the final concentration of 256–0.125 µg/mL. Microtiter plates were inoculated with test microorganisms so that the final concentration of bacterial cells was 10^5. Ampicillin, oxacillin, and ciprofloxacin (Sigma) were used as reference drugs. A drug-free control and a sterility control were included. The plates were incubated for 24 h at 37 °C for staphylococci and enterococci. […] The experiments were repeated three times.

[2] = tested on: C-32, A549, MDA-MB-231 and HFF-1 cells; assay: Wound healing assay; format: cell-based, human; conditions: 3 µM, 72 h after scratching, all cells
Protocol: Photographs of the cell culture (control and culture exposed to compound 3c at a concentration of 3 µM) were taken after scraping the bottom of the vessel with a pipette tip and then after 72 h of incubation (Figure 2). […] In control cultures, the cell-free surface of the vessel (scraped with a pipette tip) becomes overgrown with cells, while in cultures supplemented with medium containing 3 µM of compound 3c, empty spots are visible. In the case of A549 and MDA-MB-231 cells, entire cell-free regions are clearly visible.
The wound healing assay is a standard in vitro technique for examining collective cell migration in two dimensions. The test involves scratching the bottom of a vessel (wells of a culture plate) with a pipette tip and observing over time how quickly cells move to occupy a free surface under specific culture conditions. In the presented work, the observation was carried out after 72 h of culture. At t = 0, a scratch was made, the medium was replaced with fresh one with the addition of the test compound, and then the cultures were incubated for 72 h. The observation was carried out using an OLYMPUS IX 50 microscope (Tokyo, Japan) with a KERN camera (KERN & SOHN GmbH, Balingen, Germany), and an image analysis system with KERN software (BalanceConnection SCD-4.0 Pro) was used to analyze the observed changes.

[3] = tested on: H3, BCL-2, BAX, P21, and P53 genes in C-32, A549, MDA-MB-231, and HFF-1 cells; assay: Transcriptional activity by RT-QPCR; format: cell-based, human; conditions: 36 µM in medium, 24 h
Protocol: The study investigated the effect of compound 3c on the transcriptional activity of genes encoding a proliferation marker (histone H3), cell cycle regulators (P53 and P21), and genes encoding proteins involved in the mitochondrial apoptosis pathway (BCL-2 and BAX) in C-32, A549, MDA-MB-231, and HFF-1 cells. Cultures were exposed to 3c at a concentration of 36 µM in medium for 24 h.
The transcriptional activity of the following genes was assessed: H3 (a gene encoding histone H3, a proliferation marker), BCL-2 and BAX (genes encoding BCL-2 and BAX proteins, respectively; both are mitochondrial proteins associated with apoptosis), and P21 and P53 (cell cycle regulators). Activity was assessed by RT-QPCR using the CFX96 Touch Real-Time PCR Detection System (BIO-RAD Hercules, CA, USA) and a SensiFAST^TM SYBR^R No-ROX One-Step Kit (Meridian Bioscience, Memphis, TN, USA). Cultured cells were exposed (for 24 h) to the tested compounds (0.5 µg/mL). RNA was extracted using Quick-RNA™ MiniPrep kit columns (Zymo Research, Irvine, CA, USA). The extracted RNA was assessed qualitatively and quantitatively. The integrity of total RNA was checked by electrophoresis (1.2% agarose gel, EtBr), and the amount and purity of total RNA in the extracts was determined spectrophotometrically (HP8452A apparatus, Hewlett Packard, Waldbronn, Germany).

Row | SMILES | MIC [1] [µM] | other results
1 | C#CCNS(=O)(=O)c1ccc(O)c2ncccc12 [3a, 8-Hydroxy-N-(prop-2-yn-1-yl)quinoline-5-sulfonamide] | 977 (≈ 256 µg/mL) | 
2 | C#CC(C)(C)NS(=O)(=O)c1ccc(O)c2ncccc12 [3b, 8-Hydroxy-N-(1,1-dimethylprop-2-yn-1-yl)quinoline-5-sulfonamide] | 883 (≈ 256 µg/mL) | 
3 | C#CCN(C)S(=O)(=O)c1ccc(O)c2ncccc12 [3c, 8-Hydroxy-N-methyl-N-(prop-2-yn-1-yl)quinoline-5-sulfonamide] | 464 (≈ 128 µg/mL) | proliferative activity and migration capacity (wound healing) [2]: reduction in proliferative activity and migration capacity; BCL-2/BAX ratio (ratio of gene copy numbers) [3]: in favor of BAX; transcriptional activity of P21 [3]: increase in the transcriptional activity; transcriptional activity of P53 [3]: increase in the transcriptional activity; H3 expression (proliferation marker) ([3]; all the cultures): reduction in H3 expression
4 | C#CCOc1ccccc1NS(=O)(=O)c1ccc(O)c2ncccc12 [3f, 8-Hydroxy-N-[2-(prop-2-yn-1-yloxy)phenyl]quinoline-5-sulfonamide] | 362 (≈ 128 µg/mL) | 

Now from value to compound, other results behind:

Row | MIC [1] [µM] | SMILES | other results
5 | 362 (≈ 128 µg/mL) | C#CCOc1ccc(NS(=O)(=O)c2ccc(O)c3ncccc23)cc1 [3d, 8-Hydroxy-N-[4-(prop-2-yn-1-yloxy)phenyl]quinoline-5-sulfonamide] | 
6 | 362 (≈ 128 µg/mL) | C#CCOc1cccc(NS(=O)(=O)c2ccc(O)c3ncccc23)c1 [3e, 8-Hydroxy-N-[3-(prop-2-yn-1-yloxy)phenyl]quinoline-5-sulfonamide] | 
